Assay results as given in PubChem BioAssay (NCI).
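Protocol summary: plate cells (96-well), add compound at 5 concentrations, incubate 48 h, interpolate endpoints linearly. At the GI50, growth is halved. TGI: total growth inhibition.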

Assays:
Test in all cases: NCI anticancer screen, dose series, 48 h
[1] = tested on: 786-0 renal
[2] = tested on: A498 renal
[3] = tested on: A549 NSCLC
[4] = tested on: ACHN renal
[5] = tested on: BT-549 breast
[6] = tested on: CAKI-1 renal
[7] = tested on: CCRF-CEM leukemia
[8] = tested on: COLO 205 colon
[9] = tested on: DU-145 prostate
[10] = tested on: EKVX NSCLC
[11] = tested on: HCC-2998 colon
[12] = tested on: HCT-116 colon
[13] = tested on: HCT-15 colon
[14] = tested on: HL-60(TB) leukemia
[15] = tested on: HOP-62 NSCLC
[16] = tested on: HOP-92 NSCLC
[17] = tested on: HS 578T breast
[18] = tested on: HT29 colon
[19] = tested on: IGROV1 ovarian
[20] = tested on: K-562 leukemia
[21] = tested on: KM12 colon
[22] = tested on: LOX IMVI melanoma
[23] = tested on: M14 melanoma
[24] = tested on: MALME-3M melanoma
[25] = tested on: MCF7 breast
[26] = tested on: MDA-MB-231 breast
[27] = tested on: MDA-MB-435
[28] = tested on: MOLT-4 leukemia
[29] = tested on: NCI-H226 lung
[30] = tested on: NCI-H23 lung
[31] = tested on: NCI-H460 lung
[32] = tested on: NCI-H522 lung
[33] = tested on: NCI/ADR-RES ovarian
[34] = tested on: OVCAR-4 ovarian
[35] = tested on: OVCAR-5 ovarian
[36] = tested on: OVCAR-8 ovarian
[37] = tested on: PC-3 prostate
[38] = tested on: RPMI-8226 leukemia
[39] = tested on: RXF 393 renal
[40] = tested on: SF-268 CNS
[41] = tested on: SF-295 CNS
[42] = tested on: SF-539 CNS
[43] = tested on: SK-MEL-2 melanoma
[44] = tested on: SK-MEL-28 melanoma
[45] = tested on: SK-MEL-5 melanoma
[46] = tested on: SK-OV-3 ovarian
[47] = tested on: SN12C renal
[48] = tested on: SNB-19 CNS
[49] = tested on: SNB-75 CNS
[50] = tested on: SR leukemia
[51] = tested on: SW-620 colon
[52] = tested on: T-47D breast
[53] = tested on: TK-10 renal
[54] = tested on: U251 CNS
[55] = tested on: UACC-257 melanoma
[56] = tested on: UACC-62 melanoma
[57] = tested on: UO-31 renal

## CS(=O)(=O)Nc1cc(-c2ccc3ncc(C#N)c(NCc4ccccc4F)c3c2)cnc1Cl
[1]
  GI50: 308 nM
  TGI: 9520 nM
[2]
  GI50: 89.6 nM
  TGI: 461 nM
[3]
  GI50: 442 nM
  TGI: 4000 nM
[4]
  GI50: 436 nM
  TGI: > 52500 nM
[5]
  GI50: 60.9 nM
  TGI: 623 nM
[6]
  GI50: 131 nM
  TGI: 1420 nM
[7]
  GI50: 153 nM
  TGI: 45800 nM
[8]
  GI50: 271 nM
  TGI: 1200 nM
[9]
  GI50: 302 nM
  TGI: 12100 nM
[10]
  GI50: 319 nM
  TGI: 5480 nM
[11]
  GI50: 339 nM
  TGI: 8320 nM
[12]
  GI50: 248 nM
  TGI: 1500 nM
[13]
  GI50: 264 nM
  TGI: 11700 nM
[14]
  GI50: 253 nM
  TGI: 6390 nM
[15]
  GI50: 220 nM
  TGI: 4710 nM
[16]
  GI50: 23.8 nM
  TGI: 286 nM
[17]
  GI50: 49.8 nM
  TGI: 445 nM
[18]
  GI50: 324 nM
  TGI: 5490 nM
[19]
  GI50: 108 nM
  TGI: 876 nM
[20]
  GI50: 260 nM
  TGI: > 100000 nM
[21]
  GI50: 280 nM
  TGI: 3860 nM
[22]
  GI50: 191 nM
  TGI: 1010 nM
[23]
  GI50: 243 nM
  TGI: 7010 nM
[24]
  GI50: 71.7 nM
  TGI: 475 nM
[25]
  GI50: 106 nM
  TGI: 11500 nM
[26]
  GI50: 343 nM
  TGI: 3800 nM
[27]
  GI50: 251 nM
  TGI: 10600 nM
[28]
  GI50: 190 nM
  TGI: 2540 nM
[29]
  GI50: 358 nM
  TGI: 18200 nM
[30]
  GI50: 271 nM
  TGI: 12300 nM
[31]
  GI50: 374 nM
  TGI: 11500 nM
[32]
  GI50: 335 nM
  TGI: 8140 nM
[33]
  GI50: 1450 nM
  TGI: 29500 nM
[34]
  GI50: 262 nM
  TGI: 6050 nM
[35]
  GI50: 386 nM
  TGI: 9740 nM
[36]
  GI50: 328 nM
  TGI: 12200 nM
[37]
  GI50: 231 nM
  TGI: 10000 nM
[38]
  GI50: 189 nM
  TGI: 1290 nM
[39]
  GI50: 93.4 nM
  TGI: 925 nM
[40]
  GI50: 163 nM
  TGI: 3670 nM
[41]
  GI50: 197 nM
  TGI: 1920 nM
[42]
  GI50: 190 nM
  TGI: 1840 nM
[43]
  GI50: 91.9 nM
  TGI: 320 nM
[44]
  GI50: 176 nM
  TGI: 4770 nM
[45]
  GI50: 163 nM
  TGI: 336 nM
[46]
  GI50: 232 nM
  TGI: 1400 nM
[47]
  GI50: 235 nM
  TGI: > 64000 nM
[48]
  GI50: 293 nM
  TGI: 11500 nM
[49]
  GI50: 26.7 nM
  TGI: 370 nM
[50]
  GI50: 123 nM
  TGI: 3200 nM
[51]
  GI50: 317 nM
  TGI: 10800 nM
[52]
  GI50: 108 nM
  TGI: 5840 nM
[53]
  GI50: 100 nM
  TGI: 976 nM
[54]
  GI50: 155 nM
  TGI: 4270 nM
[55]
  GI50: 244 nM
  TGI: 4940 nM
[56]
  GI50: 118 nM
  TGI: 1270 nM
[57]
  GI50: 154 nM
